# Counter-ions that a name gives are not always drawn.
# Target: T1, haematopoietic prostaglandin D synthase (H-PGDS) (Homo sapiens, UniProt O60760)
# T1 construct: Full length human H-PGDS cDNA (Invitrogen Ultimate ORF 10H13026) was amplified by PCR; 6-His (N); TEV protease cleavage site (N); made in house; host or cells: E. coli BL21 (DE3*), vector pET22b+
# Assay: H-PGDS RapidFire high throughput mass spectrometry assay (conversion of PGH2 to PGD2)
# Type: biochemical
# Conditions: 10 nM H-PGDS, PGH2 formed in situ by COX-2 from arachidonic acid; read-out: Potency Range (mean pIC50) (converted)
# How it was run: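 PGH2 substrate generated in situ by COX-2 (full-length human, FLAG-tagged, Sf9-expressed) from arachidonic acid at ˜10 μM, then converted by full-length human His-tagged H-PGDS (E. coli-expressed). RapidFire SPE–triple quadrupole MS measured PGD2 against PGF2α as substrate surrogate to give percent conversion.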
# T1 sequence (O60760 whole entry): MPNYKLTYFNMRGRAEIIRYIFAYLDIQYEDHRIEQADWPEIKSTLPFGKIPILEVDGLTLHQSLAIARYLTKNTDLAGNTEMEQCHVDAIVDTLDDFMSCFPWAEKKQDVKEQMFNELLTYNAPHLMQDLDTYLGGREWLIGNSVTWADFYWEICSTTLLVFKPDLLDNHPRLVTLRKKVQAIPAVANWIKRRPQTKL
row,Structure (SMILES),IC50 [µM]
1,"COc1ccccc1O[C@H]1C[C@H](C(=O)N[C@H]2CC[C@H](C(C)(C)O)CC2)C1 [Example 284, (trans)-N-((trans)-4-(2-hydroxypropan-2-yl)cyclohexyl)-3-(2-methoxyphenoxy)cyclobutanecarboxamide]",0.01 to 0.0794
2,"CCc1cccc(O[C@H]2C[C@H](C(=O)N[C@H]3CC[C@H](C(C)(C)O)CC3)C2)c1 [Example 285, (trans)-3-(3-Ethylphenoxy)-N-((trans)-4-(2-hydroxypropan-2-yl)cyclohexyl)cyclobutanecarboxamide]",0.1 to 1
3,"O=C(Nc1nccs1)[C@H]1C[C@H](Oc2cccc(Cl)c2)C1 [Example 287, (trans)-3-(3-Chlorophenoxy)-N-(thiazol-2-yl)cyclobutanecarboxamide]",0.01 to 0.0794
4,"CC(C)(O)[C@H]1CC[C@H](NC(=O)[C@H]2C[C@H](Oc3cccc(Cl)c3)C2)CC1 [Example 288, (trans)-3-(3-Chlorophenoxy)-N-((trans)-4-(2-hydroxypropan-2-yl)cyclohexyl)cyclobutanecarboxamide]",0.1 to 1
5,"CC(C)(O)[C@H]1CC[C@H](NC(=O)[C@H]2C[C@H](Oc3cccc(F)c3)C2)CC1 [Example 289, (trans)-3-(3-Fluorophenoxy)-N-((trans)-4-(2-hydroxypropan-2-yl)cyclohexyl)cyclobutanecarboxamide]",0.1 to 1
6,"CC(C)(O)[C@H]1CC[C@H](NC(=O)[C@H]2C[C@H](Oc3cc(F)cc(Cl)c3)C2)CC1 [Example 290, (trans)-3-(3-Chloro-5-fluorophenoxy)-N-((trans)-4-(2-hydroxypropan-2-yl)cyclohexyl)cyclobutanecarboxamide]",0.1 to 1
7,"O=C(Nc1nccs1)[C@H]1C[C@H](Oc2ccc(F)c3cccnc23)C1 [Example 291, (trans)-3-((5-Fluoroquinolin-8-yl)oxy)-N-(thiazol-2-yl)cyclobutanecarboxamide, trifluoroacetic acid salt]",0.1 to 1
8,"CC(C)(O)[C@H]1CC[C@H](NC(=O)[C@H]2C[C@H](Oc3ccc(F)c4cccnc34)C2)CC1 [Example 292, (trans)-3-((5-Fluoroquinolin-8-yl)oxy)-N-((trans)-4-(2-hydroxypropan-2-yl)cyclohexyl)cyclobutanecarboxamide]",0.1 to 1
9,"CC(C)(O)[C@H]1C[C@H](NC(=O)[C@H]2C[C@H](Oc3cc(F)cc4cccnc34)C2)C1 [Example 293, (trans)-3-((6-Fluoroquinolin-8-yl)oxy)-N-((trans)-3-(2-hydroxypropan-2-yl)cyclobutyl)cyclobutanecarboxamide]",0.1 to 1
10,"O=C(Nc1nccs1)[C@H]1C[C@H](Oc2cc(F)cc3cccnc23)C1 [Example 294, (trans)-3-((6-Fluoroquinolin-8-yl)oxy)-N-(thiazol-2-yl)cyclobutanecarboxamide]",0.01 to 0.0794
11,"CC(C)(O)[C@H]1CC[C@H](NC(=O)[C@H]2C[C@H](Oc3cc(F)cc4cccnc34)C2)CC1 [Example 295, (trans)-3-((6-Fluoroquinolin-8-yl)oxy)-N-((trans)-4-(2-hydroxypropan-2-yl)cyclohexyl)cyclobutanecarboxamide]",0.01 to 0.0794
12,"CC(C)(O)[C@H]1CC[C@H](NC(=O)[C@H]2C[C@H](Oc3cccc4cncnc34)C2)CC1 [Example 296, (trans)-N-((trans)-4-(2-Hydroxypropan-2-yl)cyclohexyl)-3-(quinazolin-8-yloxy)cyclobutanecarboxamide]",0.1 to 1
13,"O=C(Nc1nccs1)[C@H]1C[C@H](Oc2cccc3[nH]cnc23)C1 [Example 297, (trans)-3-((1H-Benzo[d]imidazol-4-yl)oxy)-N-(thiazol-2-yl)cyclobutanecarboxamide, di-trifluoroacetic acid salt]",0.1 to 1
14,"CC(C)(O)[C@H]1CC[C@H](NC(=O)[C@H]2C[C@H](Oc3cccn4ccnc34)C2)CC1 [Example 298, (trans)-N-((trans)-4-(2-Hydroxypropan-2-yl)cyclohexyl)-3-(imidazo[1,2-a]pyridin-8-yloxy)cyclobutanecarboxamide]",0.1 to 1
15,"CC(C)(O)[C@H]1CC[C@H](NC(=O)N2CC(Oc3cccc4sncc34)C2)CC1 [Example 299, 3-(Benzo[d]isothiazol-4-yloxy)-N-((trans)-4-(2-hydroxypropan-2-yl)cyclohexyl)azetidine-1-carboxamide]",0.1 to 1
16,"Cc1nc2c(OC3CN(C(=O)N[C@H]4CC[C@H](C(C)(C)O)CC4)C3)cccc2s1 [Example 300, N-((trans)-4-(2-Hydroxypropan-2-yl)cyclohexyl)-3-((2-methylbenzo[d]thiazol-4-yl)oxy)azetidine-1-carboxamide]",1.26 to 2
17,O=C(Nc1ccn[nH]1)[C@H]1C[C@H](Oc2cccc3scnc23)C1 [Example 301],0.1 to 1
18,"O=C(Nc1cc(C2CC2)n[nH]1)[C@H]1C[C@H](Oc2cccc3scnc23)C1 [Example 302, (trans)-3-(Benzo[d]thiazol-4-yloxy)-N-(3-cyclopropyl-1H-pyrazol-5-yl)cyclobutanecarboxamide]",0.01 to 0.0794

row,Structure (SMILES),IC50 [µM]
1,"CC(C)(O)C(=O)N1CCC(NC(=O)[C@H]2C[C@H](Oc3cc(F)cc4scnc34)C2)CC1 [Example 303, (trans)-3-((6-Fluorobenzo[d]thiazol-4-yl)oxy)-N-(1-(2-hydroxy-2-methylpropanoyl)piperidin-4-yl)cyclobutanecarboxamide]",0.1 to 1
2,"C[C@H]1[C@@H](Oc2cccc3scnc23)CN1C(=O)N[C@H]1CC[C@H](C(C)(C)O)CC1 [Example 304, (2S,3S)-3-(Benzo[d]thiazol-4-yloxy)-N-((trans)-4-(2-hydroxypropan-2-yl)cyclohexyl)-2-methylazetidine-1-carboxamide]",0.01 to 0.0794
3,"C[C@@H]1[C@H](Oc2cccc3scnc23)CN1C(=O)N[C@H]1CC[C@H](C(C)(C)O)CC1 [Example 305, (2R,3R)-3-(Benzo[d]thiazol-4-yloxy)-N-((trans)-4-(2-hydroxypropan-2-yl)cyclohexyl)-2-methylazetidine-1-carboxamide]",0.01 to 0.0794
4,"CS(=O)(=O)c1ccc(NC(=O)N2CC(Oc3cccc4scnc34)C2)cc1 [Example 306, 3-(Benzo[d]thiazol-4-yloxy)-N-(4-(methylsulfonyl)phenyl)azetidine-1-carboxamide]",0.01 to 0.0794
5,"Cc1cc(NC(=O)[C@H]2C[C@H](Oc3cccc4scnc34)C2)ncn1 [Example 307, (trans)-3-(Benzo[d]thiazol-4-yloxy)-N-(6-methylpyrimidin-4-yl)cyclobutanecarboxamide]",0.01 to 0.0794
6,"CS(=O)(=O)c1ccc(NC(=O)N2CC(Oc3cccc4scnc34)C2)c(F)c1 [Example 308, 3-(Benzo[d]thiazol-4-yloxy)-N-(2-fluoro-4-(methylsulfonyl)phenyl)azetidine-1-carboxamide]",0.01 to 0.0794
7,"O=C(Nc1cccc(N2CCOCC2)c1)N1CC(Oc2cccc3scnc23)C1 [Example 309, 3-(Benzo[d]thiazol-4-yloxy)-N-(3-morpholinophenyl)azetidine-1-carboxamide]",0.1 to 1
8,"O=C(Nc1ccc(N2CCOCC2)cc1)N1CC(Oc2cccc3scnc23)C1 [Example 310, 3-(Benzo[d]thiazol-4-yloxy)-N-(4-morpholinophenyl)azetidine-1-carboxamide]",0.01 to 0.0794
9,"CS(=O)(=O)c1ccc(NC(=O)N2CC(Oc3cccc4scnc34)C2)nc1 [Example 311, 3-(Benzo[d]thiazol-4-yloxy)-N-(5-(methylsulfonyl)pyridin-2-yl)azetidine-1-carboxamide]",0.01 to 0.0794
10,"O=C(Nc1ccnc(C2CC2)n1)N1CC(Oc2cccc3scnc23)C1 [Example 312, 3-(Benzo[d]thiazol-4-yloxy)-N-(2-cyclopropylpyrimidin-4-yl)azetidine-1-carboxamide]",0.01 to 0.0794
11,"O=C(Nc1ccnc(C2CC2)n1)N1CC(Oc2cc(F)cc3scnc23)C1 [Example 313, N-(2-Cyclopropylpyrimidin-4-yl)-3-((6-fluorobenzo[d]thiazol-4-yl)oxy)azetidine-1-carboxamide]",0.01 to 0.0794
12,"Cn1nc(C2CC2)cc1NC(=O)N1CC(Oc2cccc3scnc23)C1 [Example 314, 3-(Benzo[d]thiazol-4-yloxy)-N-(3-cyclopropyl-1-methyl-1H-pyrazol-5-yl)azetidine-1-carboxamide]",0.01 to 0.0794
13,"O=C(NC12CC(Nc3ncccn3)(C1)C2)[C@H]1C[C@H](Oc2cccc3scnc23)C1 [Example 315, (trans)-3-(Benzo[d]thiazol-4-yloxy)-N-(3-(pyrimidin-2-ylamino)bicyclo[1.1.1]pentan-1-yl)cyclobutane-1-carboxamide]",0.01 to 0.0794
14,"CC(C)(O)C12CC(NC(=O)N3CC(Oc4cccc5scnc45)C3)(C1)C2 [Example 316, 3-(Benzo[d]thiazol-4-yloxy)-N-(3-(2-hydroxypropan-2-yl)bicyclo[1.1.1]pentan-1-yl)azetidine-1-carboxamide]",0.1 to 1
15,"CC(C)(O)C12C3C4C1C1C2C3C41NC(=O)N1CC(Oc2cccc3scnc23)C1 (stereo not drawn) [Example 317, 3-(Benzo[d]thiazol-4-yloxy)-N-(4-(2-hydroxypropan-2-yl)cuban-1-yl)azetidine-1-carboxamide]",0.01 to 0.0794
16,"CC(C)(O)C12CC(NC(=O)[C@H]3C[C@H](Oc4cccc5scnc45)C3)(C1)C2 [Example 318, (trans)-3-(Benzo[d]thiazol-4-yloxy)-N-(3-(2-hydroxypropan-2-yl)bicyclo[1.1.1]pentan-1-yl)cyclobutane-1-carboxamide]",0.01 to 0.0794
17,"CCOC(=O)NC12CC(NC(=O)[C@H]3C[C@H](Oc4cccc5scnc45)C3)(C1)C2 [Example 319, Ethyl (3-((trans)-3-(benzo[d]thiazol-4-yloxy)cyclobutane-1-carboxamido)bicyclo[1.1.1]pentan-1-yl)carbamate]",0.01 to 0.0794
18,"CC(C)(O)C12C3C4C1C1C2C3C41NC(=O)[C@H]1C[C@H](Oc2cccc3scnc23)C1 (stereo partly drawn) [Example 320, (trans)-3-(Benzo[d]thiazol-4-yloxy)-N-(4-(2-hydroxypropan-2-yl)cuban-1-yl)cyclobutane-1-carboxamide]",0.01 to 0.0794

# Reference: patent publication US11053234B2 (GlaxoSmithKline Intellectual Property Development Limited, priority 2016, dated 2021)
